Where a SMILES comes first, the peptide text is derived from it. Bridges are numbered along the chain shown (N, C = ends). Where no end group is shown, it is not given here. [ ]: non-standard residue; d: D form. d2Nal = N[C@H](Cc1ccc2ccccc2c1)C(=O)O; dNle = CCCC[C@@H](N)C(=O)O
Key:
IL17A [1] = target: T1, IL17A (Homo sapiens, UniProt Q16552); assay: ELISA competition assay against Centyrin WPW-His on IL17A; type: binding
From the text: (§1) In order to assess the potential binding of the D-Proteins to IL17A at the binding site of CNT06785, the D-Proteins were screened in an ELISA competition assay against a known competitor of antibody CNT06785, Centyrin WPW-His. To show the specific binding to the epitope, negative control antibody CAT2200 was taken along that binds to a different, non-overlapping epitope on IL17A. […] Upper graphs show competition with centyrin WPW, lower graphs—with antibody CAT2200 binding to a non-overlapping epitope. Response is plotted as a function of logarithm of concentration.

IL17A [2] = target: T1, IL17A; assay: ELISA competition assay against negative control antibody CAT2200 (non-overlapping epitope) on IL17A; conditions: antibody binding a non-overlapping epitope on IL17A
From the text: as §1

Influenza hemagglutinin [3] = assay: ELISA competition with head binding antibody CR11054 (non-overlapping epitope); conditions: non-overlapping epitope on HA
Influenza hemagglutinin [4] = assay: ELISA assay for competition with designer protein HB80.4 (stem epitope); type: binding; conditions: for competition with HB80.4 (result in words): stem binding HB80.4, competition ELISA on HA

T1 sequence (Q16552 24-155): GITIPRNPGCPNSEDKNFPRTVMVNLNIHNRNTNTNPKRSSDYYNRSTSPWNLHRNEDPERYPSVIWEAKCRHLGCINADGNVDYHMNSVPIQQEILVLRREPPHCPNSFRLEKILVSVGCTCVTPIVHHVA

CCCC[C@H]1NC(=O)[C@@H](CCCCN)NC(=O)[C@@H](CCSC)NC(=O)[C@@H](CC(C)C)NC(=O)[C@@H](Cc2c[nH]cn2)NC(=O)[C@@H](CCCCN)NC(=O)[C@H]2CSSC[C@H]3NC(=O)[C@@H]([C@H](C)O)NC(=O)[C@@H](CCCCN)NC(=O)[C@@H](CCCNC(=N)N)NC(=O)[C@@H](CSSC[C@@H](NC(=O)[C@@H](Cc4ccccc4)NC(=O)[C@@H](CC(C)C)NC(=O)[C@@H](CCCCN)NC(=O)[C@H]4CCCN4C(=O)[C@@H](Cc4ccccc4)NC(=O)[C@@H]([C@H](C)O)NC(=O)[C@@H](C)NC(=O)[C@@H](CCC(N)=O)NC(=O)[C@H](NC(=O)[C@@H](CO)NC(=O)[C@H](N)CCCNC(=N)N)CSSC[C@H](C(=O)O)NC(=O)[C@@H]([C@H](C)O)NC(=O)CNC3=O)C(=O)N[C@H]([C@H](C)O)C(=O)N[C@H](C)C(=O)N[C@H](Cc3ccccc3)C(=O)N[C@H](CC(C)C)C(=O)N2)NC(=O)[C@@H](Cc2ccc3ccccc3c2)NC(=O)[C@@H](CO)NC(=O)[C@@H](CC(C)C)NC(=O)[C@@H](CCCNC(=N)N)NC1=O [DP142137, H-rscqatfpklfctaflckhlmkxrls<crktcGtc-OH] (H-[dR][dS][dC][dQ][dA][dT][dF][dP][dK][dL][dF][dC][dT][dA][dF][dL][dC][dK][dH][dL][dM][dK][dNle][dR][dL][dS][d2Nal][dC][dR][dK][dT][dC]G[dT][dC]-OH; disulfide 3-35, 12-28, 17-32)
competition with centyrin WPW (result in words) (IL17A [1]): clear binding curve
competition with CAT2200 (result in words) (IL17A [2]): lack of activity

H-rsciatepksfctaflckhlmkarlsycrktcGtc-OH (H-[dR][dS][dC][dI][dA][dT][dE][dP][dK][dS][dF][dC][dT][dA][dF][dL][dC][dK][dH][dL][dM][dK][dA][dR][dL][dS][dY][dC][dR][dK][dT][dC]G[dT][dC]-OH; cysteine pairing not given here) [DP141063]
competition with centyrin WPW (result in words) (IL17A [1]): lack of activity
competition with CAT2200 (result in words) (IL17A [2]): lack of activity

H-rscidtipksrctafqckhsmkyrlsfcrktcGtc-OH [DP141050, reference compound]
competition with centyrin WPW (result in words) (IL17A [1]): lack of activity
competition with CAT2200 (result in words) (IL17A [2]): lack of activity
competition with CR11054 (result in words) (Influenza hemagglutinin [3]): lack of activity

H-rscqatepkyfctaflckhlmkarlsycrktcGtc-OH (H-[dR][dS][dC][dQ][dA][dT][dE][dP][dK][dY][dF][dC][dT][dA][dF][dL][dC][dK][dH][dL][dM][dK][dA][dR][dL][dS][dY][dC][dR][dK][dT][dC]G[dT][dC]-OH; cysteine pairing not given here) [DP141065]
competition with centyrin WPW (result in words) (IL17A [1]): lack of activity
competition with CAT2200 (result in words) (IL17A [2]): lack of activity

racprilkkcrrdsdcpGecickGnGycG (RACPRILKKCRRDSDCPGECICKGNGYCG) [DP141753, wild-type scaffold 2LJS as D-protein, negative control, reference compound]
competition with HB80.4 (result in words) (Influenza hemagglutinin [4]): no competition until the highest concentration

rfcpsibkkcrrdsdcpG!cickGnGycG (RFCPSIXKKCRRDSDCPGXCICKGNGYCG; not fully specified (some residues); printed as rfcpsibkkcrrdsdcpG!cickGnGycG; cysteine pairing not given here) [DP142093, optimized HA hit, D-protein on scaffold 2LJS]
pIC50, competition with HB80.4 (Influenza hemagglutinin [4]; competition ELISA on HA): 4.1
IC50 (Influenza hemagglutinin [4]; competition ELISA on HA, read-out: IC50 given in brackets after pIC50, competition with HB80.4 (converted)): 88 µM
competition with HB80.4 (result in words) (Influenza hemagglutinin [4]): clear S-curve
competition with CR11054 (result in words) (Influenza hemagglutinin [3]): no competition
